Measurements: PMC8745332, “Synthesis, Molecular Docking and Biological Characterization of Pyrazine Linked 2-Aminobenzamides as New Class I Selective Histone Deacetylase (HDAC) Inhibitors with Anti-Leukemic Activity” (International Journal of Molecular Sciences, 2021)
Where two headings read alike, the source gives them in different places.

Assays:
human HDAC1 = target: T1, human HDAC1 (Homo sapiens, UniProt Q13547); assay: In vitro HDAC1 inhibition assay, fluorogenic p53 peptide Ac-RHKK(Acetyl)-AMC; format: biochemical; conditions: 10 nM HDAC1, 20 µM substrate, 90 min, 37 °C
T1 construct: purchased ENZO Life Sciences AG (Lausen, CH)
Experimental: (§1) Recombinant human HDAC1, HDAC2, and HDAC3/NCOR1 were purchased from ENZO Life Sciences AG (Lausen, CH). Recombinant human HDAC 4, HDAC5, HDAC7, HDAC9 and HDAC11 were produced by Barinka lab in Prague, as described before. Recombinant human HDAC8 was produced by Romier et al. (IGBMC, Univ. Strasbourg), as described in [55].
(§2) The in vitro testing on recombinant HDACs 1-3 were performed with a fluorogenic peptide derived from p53 (Ac-RHKK(Acetyl)-AMC). The measurements were performed in an assay buffer (50 mM Hepes, 150 mM NaCl, 5 mM MgCl2, 1 mM TCEP and 0.2 mg/mL BSA, pH 7.4 adjusted with NaOH) at 37 °C. Inhibitors at different concentrations were incubated with 10 nM HDAC1, 3 nM HDAC2 or 3 nM HDAC3 (final concentration) for at least 5 min. The reaction was started with the addition of the fluorogenic substrate (20 µM final concentration) and incubated for 30 min for HDAC2 and HDAC3 and 90 min for HDAC1. The reaction was stopped with a solution of 1 mg/mL trypsin and 20 µM SAHA in 1 mM HCl and incubated for 1 h at 37 °C. […] The received fluorescence intensities were normalized with uninhibited reaction as 100% and the reaction without enzyme as 0%. A nonlinear regression analysis was done to determine the IC50 value.

human HDAC2 = target: T2, human HDAC2 (Homo sapiens, UniProt Q92769); assay: In vitro HDAC2 inhibition assay, fluorogenic p53 peptide Ac-RHKK(Acetyl)-AMC; format: biochemical; conditions: 3 nM HDAC2, 20 µM substrate, 30 min, 37 °C
T2 construct: purchased ENZO Life Sciences AG (Lausen, CH)
Experimental: as §1, §2

human HDAC5 = target: T3, human HDAC5 (Homo sapiens, UniProt Q9UQL6); assay: HDAC5 dose response, substrate Abz-SRGGK(thio-TFA)FFRR-NH2; format: biochemical
T3 construct: made in house
Experimental: as §1
(§3) The determination of dose response curves for HDAC4, 5, 7 and 9 was performed as previously described with compound 4 as substrate (Abz-SRGGK(thio-TFA)FFRR-NH2). The substrate concentration was 50 µM and the enzyme concentration was 10 nM for HDAC4 and HDAC5, 5 nM for HDAC7 and 20 nM for HDAC9. HDAC11 inhibition assay was performed as described before. The fluorescence intensity was recorded with an Envision 2104 Multilabel Plate Reader (PerkinElmer, Waltham, MA) with an excitation wavelength of 330 ± 75 nm and an emission wavelength of 430 ± 8 nm.

HDAC6 = target: T4, HDAC6 (Homo sapiens, UniProt Q9UBN7); assay: HDAC6 inhibition (HDAC subtype panel); format: biochemical
T4 construct: made in house
T4 sequence (Q9UBN7 1-1215): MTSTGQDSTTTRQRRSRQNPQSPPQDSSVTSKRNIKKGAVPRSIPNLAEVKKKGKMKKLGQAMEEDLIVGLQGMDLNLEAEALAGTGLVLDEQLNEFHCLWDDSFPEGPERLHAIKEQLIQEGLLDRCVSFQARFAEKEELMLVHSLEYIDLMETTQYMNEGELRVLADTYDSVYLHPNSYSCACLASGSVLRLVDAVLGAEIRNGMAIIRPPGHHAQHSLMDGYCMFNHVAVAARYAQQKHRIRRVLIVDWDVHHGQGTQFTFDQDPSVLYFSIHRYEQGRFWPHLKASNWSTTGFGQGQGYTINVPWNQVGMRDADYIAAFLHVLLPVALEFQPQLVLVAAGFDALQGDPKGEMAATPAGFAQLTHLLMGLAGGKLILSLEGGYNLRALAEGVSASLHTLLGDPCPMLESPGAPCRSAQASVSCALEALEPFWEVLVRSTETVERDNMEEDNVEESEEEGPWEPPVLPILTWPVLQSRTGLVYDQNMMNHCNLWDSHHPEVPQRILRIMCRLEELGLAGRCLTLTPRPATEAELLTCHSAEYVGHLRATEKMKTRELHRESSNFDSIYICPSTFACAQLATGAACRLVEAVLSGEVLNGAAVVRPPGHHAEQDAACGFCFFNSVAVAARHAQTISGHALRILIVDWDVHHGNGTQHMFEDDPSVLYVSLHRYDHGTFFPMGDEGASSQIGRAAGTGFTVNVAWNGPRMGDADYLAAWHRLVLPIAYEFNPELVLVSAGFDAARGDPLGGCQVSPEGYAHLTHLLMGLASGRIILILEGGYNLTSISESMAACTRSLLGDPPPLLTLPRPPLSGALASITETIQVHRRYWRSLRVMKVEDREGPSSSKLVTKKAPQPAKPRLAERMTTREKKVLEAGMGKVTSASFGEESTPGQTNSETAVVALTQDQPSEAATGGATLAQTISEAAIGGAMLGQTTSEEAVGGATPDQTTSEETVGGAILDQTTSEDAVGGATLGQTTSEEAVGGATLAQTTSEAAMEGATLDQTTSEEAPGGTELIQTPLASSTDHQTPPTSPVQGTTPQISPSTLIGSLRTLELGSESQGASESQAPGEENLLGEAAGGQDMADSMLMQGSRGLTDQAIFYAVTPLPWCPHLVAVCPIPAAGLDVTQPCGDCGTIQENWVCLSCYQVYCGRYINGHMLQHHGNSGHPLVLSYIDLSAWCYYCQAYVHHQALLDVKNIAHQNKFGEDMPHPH

human HDAC11 = target: T5, human HDAC11 (Homo sapiens, UniProt Q96DB2); assay: HDAC11 inhibition assay; format: biochemical
T5 construct: made in house
T5 sequence (Q96DB2 1-347): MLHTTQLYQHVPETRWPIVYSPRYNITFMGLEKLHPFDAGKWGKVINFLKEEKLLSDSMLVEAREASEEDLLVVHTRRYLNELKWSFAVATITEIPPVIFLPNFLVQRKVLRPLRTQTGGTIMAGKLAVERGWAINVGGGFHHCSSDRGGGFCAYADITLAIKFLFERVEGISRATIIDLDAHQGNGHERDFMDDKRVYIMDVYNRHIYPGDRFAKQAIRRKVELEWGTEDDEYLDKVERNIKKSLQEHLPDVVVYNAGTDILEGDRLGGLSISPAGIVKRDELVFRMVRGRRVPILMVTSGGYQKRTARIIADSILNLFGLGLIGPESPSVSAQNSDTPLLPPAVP
Experimental: as §1, §3

MV4-11 cells = assay: Apoptosis in MV4-11 cells, annexin-V-FITC/PI flow cytometry; format: cell-based, human; conditions: for induction of early and late apoptosis: 0.5 µM, 48 h; for IC50: Homo sapiens
Experimental: We measured the induction of early (increased exposure of phosphatidylserine on the cell surface and therefore positive staining for annexin-V-FITC) and late apoptosis (positivity for annexin-V and accumulation of propidium iodide, PI) by flow cytometry.
All leukemic cells were kept in RPMI-1640 medium supplemented with 10% FBS and 1%penicillin/streptomycin (Sigma-Aldrich, Taufkirchen, Germany) under standard culture conditions at 37 °C and a 5% CO2 humidified atmosphere. Cells were authenticated as mentioned by us.

in vitro = conditions: human, HEK293 cells
Experimental: The cells were incubated for 48 h with the HDACi at a concentration of 50 µM, and cell viability was determined by the Alamar Blue assay.
To determine the cytotoxicity of the developed compounds on the human epithelial kidney, cell line HEK293 was used. HEK293 cells (DSMZ Braunschweig, ACC305) were incubated at 37 °C in a humidified incubator with 5% CO2 in Dulbecco’s Modified Eagle Medium (DMEM) supplemented with 10% FCS and 5 mM glutamine. Cells were seeded out at 1.5 x 10^3 cells per well in a 96-well cell culture plate (TPP, Switzerland). The compounds to be tested were added immediately to the medium at 50 µM. After 24 h, Alamar Blue reagent (Invitrogen, CA) was added according to the manufacturer’s instructions and incubated again for 21 h before samples were analyzed. Detection of viable cells which convert the resazurine reagent into the highly fluorescent resorufin was performed by using a FLUOstarOPTIMA microplate reader (BMG Labtec) with the following filter set: Ex 530 nm/Em 590 nm. Measurements were performed in triplicate and data are means with standard deviation <12%.

T2 sequence (Q92769 whole entry): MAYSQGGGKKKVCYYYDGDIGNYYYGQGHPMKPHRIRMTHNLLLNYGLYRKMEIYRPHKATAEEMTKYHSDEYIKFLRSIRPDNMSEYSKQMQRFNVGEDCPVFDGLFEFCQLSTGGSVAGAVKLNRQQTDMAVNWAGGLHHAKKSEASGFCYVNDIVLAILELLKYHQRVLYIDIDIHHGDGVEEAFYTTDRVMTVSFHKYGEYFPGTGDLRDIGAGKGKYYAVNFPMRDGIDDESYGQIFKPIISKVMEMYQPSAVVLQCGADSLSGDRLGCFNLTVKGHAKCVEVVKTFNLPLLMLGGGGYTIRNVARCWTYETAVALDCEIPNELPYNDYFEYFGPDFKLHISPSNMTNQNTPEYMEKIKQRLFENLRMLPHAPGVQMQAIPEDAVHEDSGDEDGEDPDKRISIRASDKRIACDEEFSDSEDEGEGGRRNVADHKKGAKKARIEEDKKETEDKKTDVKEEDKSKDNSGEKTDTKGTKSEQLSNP
T1 sequence (Q13547 whole entry): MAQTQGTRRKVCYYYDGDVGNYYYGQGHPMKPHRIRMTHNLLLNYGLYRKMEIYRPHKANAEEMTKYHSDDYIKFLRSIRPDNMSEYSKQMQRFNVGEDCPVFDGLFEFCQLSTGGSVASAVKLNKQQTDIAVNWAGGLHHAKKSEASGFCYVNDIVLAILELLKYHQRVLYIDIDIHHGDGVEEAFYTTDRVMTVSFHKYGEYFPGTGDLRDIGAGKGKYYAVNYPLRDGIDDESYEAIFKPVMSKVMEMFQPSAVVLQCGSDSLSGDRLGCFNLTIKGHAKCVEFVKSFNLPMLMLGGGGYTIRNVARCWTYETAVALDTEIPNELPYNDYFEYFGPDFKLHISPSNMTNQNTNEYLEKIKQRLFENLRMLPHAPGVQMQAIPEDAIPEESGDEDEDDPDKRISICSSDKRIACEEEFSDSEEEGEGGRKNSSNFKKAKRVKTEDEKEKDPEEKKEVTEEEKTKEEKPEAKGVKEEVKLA
T3 sequence (Q9UQL6 whole entry): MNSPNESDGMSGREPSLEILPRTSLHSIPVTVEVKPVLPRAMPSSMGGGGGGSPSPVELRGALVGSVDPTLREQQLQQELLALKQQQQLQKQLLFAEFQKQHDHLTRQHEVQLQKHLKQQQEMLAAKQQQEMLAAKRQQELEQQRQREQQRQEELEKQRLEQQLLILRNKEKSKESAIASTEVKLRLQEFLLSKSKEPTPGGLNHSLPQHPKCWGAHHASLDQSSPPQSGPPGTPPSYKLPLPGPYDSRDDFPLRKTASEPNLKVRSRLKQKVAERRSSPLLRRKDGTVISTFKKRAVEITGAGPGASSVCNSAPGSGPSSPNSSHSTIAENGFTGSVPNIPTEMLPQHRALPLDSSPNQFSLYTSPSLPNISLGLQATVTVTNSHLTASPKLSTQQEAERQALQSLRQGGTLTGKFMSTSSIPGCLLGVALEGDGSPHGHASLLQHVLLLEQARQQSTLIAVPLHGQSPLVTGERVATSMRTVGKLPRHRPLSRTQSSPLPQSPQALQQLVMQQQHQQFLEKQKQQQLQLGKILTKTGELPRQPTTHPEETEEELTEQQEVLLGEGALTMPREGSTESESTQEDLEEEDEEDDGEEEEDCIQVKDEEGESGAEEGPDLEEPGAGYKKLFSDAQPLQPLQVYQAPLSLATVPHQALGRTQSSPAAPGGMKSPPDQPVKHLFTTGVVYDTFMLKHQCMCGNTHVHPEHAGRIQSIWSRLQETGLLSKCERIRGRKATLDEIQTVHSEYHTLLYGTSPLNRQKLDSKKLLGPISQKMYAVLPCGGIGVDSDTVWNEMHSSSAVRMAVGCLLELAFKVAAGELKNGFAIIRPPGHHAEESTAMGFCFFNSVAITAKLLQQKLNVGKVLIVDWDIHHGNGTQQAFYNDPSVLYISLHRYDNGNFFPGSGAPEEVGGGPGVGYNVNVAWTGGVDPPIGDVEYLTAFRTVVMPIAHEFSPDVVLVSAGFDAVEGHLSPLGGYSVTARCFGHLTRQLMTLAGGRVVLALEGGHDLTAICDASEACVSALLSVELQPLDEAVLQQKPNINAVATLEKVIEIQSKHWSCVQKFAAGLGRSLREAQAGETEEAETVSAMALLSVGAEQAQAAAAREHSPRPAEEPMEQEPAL

Compound	IC50 (human HDAC1) [µM]	IC50 (human HDAC2) [µM]	IC50 (human HDAC5) [µM]	IC50 (HDAC6) [µM]	IC50 (human HDAC11) [µM]	induction of early and late apoptosis (MV4-11 cells; MV4-11 cells)	viability at 48 h, 50 µM (in vitro) [%]	IC50 (MV4-11 cells; MV4-11, 48 h, read-out: IC50 (apoptosis, annexin-V/PI)) [nM]	IC50 (MV4-11 cells; MV4-11 cells, 24 h, annexin-V/PI, read-out: IC50 for apoptosis induction) [nM]	IC50 (MV4-11 cells; MV4-11 cells, after 48 h, read-out: IC50 values for growth inhibition) [nM]	fold more effective than MS-275 (apoptosis induction) (MV4-11 cells; MV4-11 cells, versus MS-275)
Cn1cc(CCN2CCN(c3cnc(C(=O)Nc4cc(-c5cccs5)ccc4N)cn3)CC2)c2ccccc21 [21a, N-(2-Amino-5-(thiophen-2-yl)phenyl)-5-(4-(2-(1-methyl-1H-indol-3-yl)ethyl)piperazin-1-yl)pyrazine-2-carboxamide]	0.26 ± 0.01	2.47 ± 0.22	> 20	> 20	7.5 ± 1	slightly increased the number of MV4-11 cells in late apoptosis	94.4	–	–	–	–
Nc1ccccc1NC(=O)c1cnc(N2CCN(Cc3c[nH]c4ccccc34)CC2)cn1 [19f, 5-(4-((1H-indol-3-yl)methyl)piperazin-1-yl)-N-(2-aminophenyl)pyrazine-2-carboxamide]	0.13 ± 0.01	0.28 ± 0.01	> 20	> 20	> 20	early and late apoptosis in nearly the whole MV4-11 cell population	76.1	194	255	~300	at least 4 fold
